{"source": "patent US10385012B2", "about": "“Thioamides and amides for controlling animal pests” (BASF SE, priority 2013, dated 2019)", "type_in_all_cases": "in vivo", "key": {"[1]": {"system": "Green soldier stink bug (Nezara viridula)", "assay": "Green soldier stink bug test on sprayed soybean pods", "conditions": "120 h, 3rd instar N. viridula on soybean pods, after 5 days, in comparison with untreated controls", "procedure": "The active compound is dissolved at the desired concentration in a mixture of 1:1 (vol:vol) distilled water:aceteone. Surfactant (Kinetic HV) is added at a rate of 0.01% (vol/vol). The test solution is prepared at the day of use. Soybean pods were placed in microwavable plastic cups lined with moist filter paper and inoculated with ten 3rd instar N. viridula. Using a hand atomizer, an approximately 2 ml solution is sprayed into each cup. Treated cups were kept at about 28-29° C. and relative humidity of about 50-60%. Percent mortality was recorded after 5 days."}, "[2]": {"system": "boll weevil (Anthonomus grandis)", "assay": "Boll weevil control, 24-well microtiter plates with insect diet and eggs", "conditions": "120 h, egg and larval mortality after 5 days, in comparison with untreated controls", "procedure": "(§1) For evaluating control of boll weevil (Anthonomus grandis) the test unit consisted of 24-well-microtiter plates containing an insect diet and 20-30 A. grandis eggs. The compounds were formulated using a solution containing 75% v/v water and 25% v/v DMSO. Different concentrations of formulated compounds were sprayed onto the insect diet at 20 μl, using a custom built micro atomizer, at two replications. After application, microtiter plates were incubated at about 23±1° C. and about 50±5% relative humidity for 5 days. Egg and larval mortality was then visually assessed."}, "[3]": {"system": "Silverleaf whitefly (Bemisia argentifolii)", "assay": "Silverleaf whitefly test on sprayed cotton plants", "conditions": "72 h, whitefly adults on cotton, 3 days after treatment, in comparison with untreated controls", "procedure": "The active compounds were formulated in cyclohexanone as a 10,000 ppm solution supplied in 1.3 ml ABgene® tubes. These tubes were inserted into an automated electrostatic sprayer equipped with an atomizing nozzle and they served as stock solutions for which lower dilutions were made in 50% acetone:50% water (v/v). A nonionic surfactant (Kinetic®) was included in the solution at a volume of 0.01% (v/v). Cotton plants at the cotyledon stage (one plant per pot) were sprayed by an automated electrostatic plant sprayer equipped with an atomizing spray nozzle. The plants were dried in the sprayer fume hood and then removed from the sprayer. Each pot was placed into a plastic cup and 10 to 12 whitefly adults (approximately 3-5 days old) were introduced. The insects were collected using an aspirator and 0.6 cm, nontoxic Tygon® tubing (R-3603) connected to a barrier pipette tip. The tip, containing the collected insects, was then gently inserted into the soil containing the treated plant, allowing insects to crawl out of the tip to reach the foliage for feeding. Cups were covered with a reusable screened lid (150-micron mesh polyester screen PeCap from Tetko, Inc.). […] Mortality was assessed 3 days after treatment, compared to untreated control plants."}, "[4]": {"system": "Southern armyworm (Spodoptera eridania)", "assay": "Southern armyworm test on sprayed lima bean plants", "conditions": "500 ppm; armyworm larvae on lima bean, 4 days after treatment; in comparison with untreated controls", "procedure": "The active compounds were formulated in cyclohexanone as a 10,000 ppm solution supplied in 1.3 ml ABgene® tubes. These tubes were inserted into an automated electrostatic sprayer equipped with an atomizing nozzle and they served as stock solutions for which lower dilutions were made in 50% acetone:50% water (v/v). A nonionic surfactant (Kinetic®) was included in the solution at a volume of 0.01% (v/v). Lima bean plants (variety Sieva) were grown 2 plants to a pot and selected for treatment at the 1st true leaf stage. Test solutions were sprayed onto the foliage by an automated electro-static plant sprayer equipped with an atomizing spray nozzle. The plants were dried in the sprayer fume hood and then removed from the sprayer. Each pot was placed into perforated plastic bags with a zip closure. Ten to 11 armyworm larvae were placed into the bag and the bags zipped closed. Test plants were maintained in a growth room at 25° C. and 20-40% relative humidity for 4 days, avoiding direct exposure to fluorescent light (24 hour photoperiod) to prevent trapping of heat inside the bags. Mortality and reduced feeding were assessed 4 days after treatment, compared to untreated control plants."}, "[5]": {"system": "yellow fever mosquito (Aedes aegypti)", "assay": "whole plant or invertebrate", "conditions": "48 h, larval mortality after 2 days, in comparison with untreated controls", "procedure": "For evaluating control of yellow fever mosquito (Aedes aegypti) the test unit consisted of 96-well-microtiter plates containing 200 μl of tap water per well and 5-15 freshly hatched A. aegypti larvae. The compounds or mixtures were formulated using a solution containing 75% water and 25% DMSO. Different concentrations of formulated compounds or mixtures were sprayed onto the insect diet at 2.5 μl, using a custom built micro atomizer, at two replications. After application, microtiter plates were incubated at 28±1° C., 80±5% RH for 2 days. Larval mortality was then visually assessed."}, "[6]": {"system": "Mediterranean fruitfly (Ceratitis capitata)", "assay": "Mediterranean fruitfly control, microtiter plates with insect diet and eggs", "conditions": "120 h, egg and larval mortality after 5 days, in comparison with untreated controls", "procedure": "as §1, with “Mediterranean fruitfly (Ceratitis capitata)” for “boll weevil (Anthonomus grandis)”, “microtiter” for “24-well-microtiter”, “50-80 C. capitata” for “20-30 A. grandis”, “5” for “20”, “28±1°” for “23±1°”, “80±5%” for “50±5%”"}}, "data": [{"compound": "C#Cc1ccc(CC(C#N)(C(N)=S)c2ccccc2)cc1", "note": "(centres unmarked) [II-1, 2-cyano-3-(4-ethynylphenyl)-2-phenylpropanethioamide]", "values": [{"measurement": "mortality at 500 ppm", "setting": "[1]", "result": "≥ 75", "unit": "%"}, {"measurement": "mortality at 2500 ppm", "setting": "[2]", "result": "≥ 75", "unit": "%"}, {"measurement": "mortality at 500 ppm", "setting": "[3]", "result": "≥ 75", "unit": "%"}]}, {"compound": "N#CC(Cc1ccc(C(F)(F)F)cc1)(C(N)=O)c1ccc(F)cc1", "note": "(centres unmarked) [II-2]", "values": [{"measurement": "mortality", "setting": "[4]", "result": "at least 75%"}]}, {"compound": "C#Cc1ccc(CC(C#N)(C(=S)NC)c2ccc(F)cc2)cc1", "note": "(centres unmarked) [III-1, 2-cyano-3-(4-ethynylphenyl)-2-(4-fluorophenyl)-N-methyl-propanethioamide]", "values": [{"measurement": "mortality at 2500 ppm", "setting": "[5]", "result": "≥ 75", "unit": "%"}, {"measurement": "mortality at 2500 ppm", "setting": "[2]", "result": "≥ 75", "unit": "%"}]}, {"compound": "C#Cc1ccc(CC(C#N)(C(=O)NC)c2ccc(F)cc2)cc1", "note": "(centres unmarked) [III-4, 2-cyano-3-(4-ethynylphenyl)-2-(4-fluorophenyl)-N-methyl-propanamide]", "values": [{"measurement": "mortality at 2500 ppm", "setting": "[6]", "result": "≥ 75", "unit": "%"}, {"measurement": "mortality at 2500 ppm", "setting": "[2]", "result": "≥ 75", "unit": "%"}]}]}
